The values that follow come from patent US20090304692A1, “TRIAZINE COMPOUNDS AS PI3 KINASE AND MTOR INHIBITORS” (Wyeth, priority 2008, published 2009).

SMILES strings stand for the structures. pIC50: −log10 of the molar value. Where “and” joins values, the source holds several entries; their conditions need not be identical. Identical values can stand only once. Counter-ions that a name gives are not always drawn. Like-named read-outs stand apart in the source and are kept apart here.

The test system of experiment [1] is human breast MDA-MB-361 tumor cell line. The experiment in a line: In vitro cell culture growth assay (MTS), MDA-MB-361. Format: cell-based. The note with it: Homo sapiens, MDA-MB-361, 72 h.
For the next experiment, the target named is PI3K-α (Homo sapiens, UniProt P42336). The experiment can be described thus: PI3K-alpha fluorescence polarization assay. The note with it: read-out: IC50 PI3Kα. In general terms: Fluorescence polarisation rises when a labelled molecule tumbles more slowly, as on binding a larger partner.
PI3K-α, sequence (P42336 whole entry, species assumed): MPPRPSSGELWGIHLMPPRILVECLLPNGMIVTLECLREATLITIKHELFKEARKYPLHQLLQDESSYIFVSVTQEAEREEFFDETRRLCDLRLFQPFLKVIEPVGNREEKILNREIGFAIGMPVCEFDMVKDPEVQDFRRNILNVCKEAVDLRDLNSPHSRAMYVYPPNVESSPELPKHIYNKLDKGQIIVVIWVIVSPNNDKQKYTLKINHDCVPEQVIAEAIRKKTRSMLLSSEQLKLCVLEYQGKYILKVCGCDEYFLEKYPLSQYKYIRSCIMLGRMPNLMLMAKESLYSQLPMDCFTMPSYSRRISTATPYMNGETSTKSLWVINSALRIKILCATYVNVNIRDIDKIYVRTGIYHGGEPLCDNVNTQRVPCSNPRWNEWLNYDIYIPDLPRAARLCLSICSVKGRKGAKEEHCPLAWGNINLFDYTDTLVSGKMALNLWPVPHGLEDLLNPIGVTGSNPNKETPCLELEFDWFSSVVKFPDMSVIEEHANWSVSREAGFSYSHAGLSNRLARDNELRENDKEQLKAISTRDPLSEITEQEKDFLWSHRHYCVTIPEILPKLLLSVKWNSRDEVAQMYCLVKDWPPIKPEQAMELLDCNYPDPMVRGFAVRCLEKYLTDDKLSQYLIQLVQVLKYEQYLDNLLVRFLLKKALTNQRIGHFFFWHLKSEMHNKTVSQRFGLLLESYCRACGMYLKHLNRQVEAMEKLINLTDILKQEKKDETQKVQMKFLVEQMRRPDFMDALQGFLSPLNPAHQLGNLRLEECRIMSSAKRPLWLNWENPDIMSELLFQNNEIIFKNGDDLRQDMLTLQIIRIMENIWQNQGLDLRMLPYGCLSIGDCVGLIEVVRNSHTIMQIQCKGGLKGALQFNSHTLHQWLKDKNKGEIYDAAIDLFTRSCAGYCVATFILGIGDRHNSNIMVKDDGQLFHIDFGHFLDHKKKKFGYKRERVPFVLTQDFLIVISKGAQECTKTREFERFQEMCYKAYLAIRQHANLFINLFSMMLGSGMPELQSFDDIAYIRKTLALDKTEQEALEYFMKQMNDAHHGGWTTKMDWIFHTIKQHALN
PI3K-α, sequence (P27986 whole entry partner, species assumed): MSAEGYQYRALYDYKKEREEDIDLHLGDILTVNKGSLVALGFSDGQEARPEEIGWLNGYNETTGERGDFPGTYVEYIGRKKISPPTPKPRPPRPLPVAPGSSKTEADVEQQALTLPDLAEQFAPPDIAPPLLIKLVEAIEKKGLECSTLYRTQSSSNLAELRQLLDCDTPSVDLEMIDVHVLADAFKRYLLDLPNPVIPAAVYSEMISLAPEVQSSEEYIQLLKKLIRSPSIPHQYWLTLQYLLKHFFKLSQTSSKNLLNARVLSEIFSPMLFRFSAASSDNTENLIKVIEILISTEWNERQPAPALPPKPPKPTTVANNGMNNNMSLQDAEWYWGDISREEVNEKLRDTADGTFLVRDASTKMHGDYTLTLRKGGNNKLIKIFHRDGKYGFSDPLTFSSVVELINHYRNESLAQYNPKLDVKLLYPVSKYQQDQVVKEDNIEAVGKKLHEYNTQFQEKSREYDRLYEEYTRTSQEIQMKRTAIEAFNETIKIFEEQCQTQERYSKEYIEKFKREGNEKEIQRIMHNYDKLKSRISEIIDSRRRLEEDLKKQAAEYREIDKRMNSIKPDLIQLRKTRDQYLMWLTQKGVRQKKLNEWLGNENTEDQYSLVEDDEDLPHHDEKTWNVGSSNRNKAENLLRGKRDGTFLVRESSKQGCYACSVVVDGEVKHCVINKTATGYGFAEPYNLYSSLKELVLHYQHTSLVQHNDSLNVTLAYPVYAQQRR
Experiment [2] deals with human prostate PC3-mm2 tumor cell line. The experiment in a line: In vitro cell culture growth assay (MTS), PC3-mm2. The experiment is classed as cell-based. The note with it: Homo sapiens, PC3MM2, 72 h.
The target of another experiment is Human mTOR (FLAG-TOR) (Homo sapiens, UniProt P42345). The experiment in a line: mTOR kinase assay (DELFIA format, purified enzyme). Format: biochemical.
Human mTOR (FLAG-TOR), sequence (P42345 1360-2549 limits assumed): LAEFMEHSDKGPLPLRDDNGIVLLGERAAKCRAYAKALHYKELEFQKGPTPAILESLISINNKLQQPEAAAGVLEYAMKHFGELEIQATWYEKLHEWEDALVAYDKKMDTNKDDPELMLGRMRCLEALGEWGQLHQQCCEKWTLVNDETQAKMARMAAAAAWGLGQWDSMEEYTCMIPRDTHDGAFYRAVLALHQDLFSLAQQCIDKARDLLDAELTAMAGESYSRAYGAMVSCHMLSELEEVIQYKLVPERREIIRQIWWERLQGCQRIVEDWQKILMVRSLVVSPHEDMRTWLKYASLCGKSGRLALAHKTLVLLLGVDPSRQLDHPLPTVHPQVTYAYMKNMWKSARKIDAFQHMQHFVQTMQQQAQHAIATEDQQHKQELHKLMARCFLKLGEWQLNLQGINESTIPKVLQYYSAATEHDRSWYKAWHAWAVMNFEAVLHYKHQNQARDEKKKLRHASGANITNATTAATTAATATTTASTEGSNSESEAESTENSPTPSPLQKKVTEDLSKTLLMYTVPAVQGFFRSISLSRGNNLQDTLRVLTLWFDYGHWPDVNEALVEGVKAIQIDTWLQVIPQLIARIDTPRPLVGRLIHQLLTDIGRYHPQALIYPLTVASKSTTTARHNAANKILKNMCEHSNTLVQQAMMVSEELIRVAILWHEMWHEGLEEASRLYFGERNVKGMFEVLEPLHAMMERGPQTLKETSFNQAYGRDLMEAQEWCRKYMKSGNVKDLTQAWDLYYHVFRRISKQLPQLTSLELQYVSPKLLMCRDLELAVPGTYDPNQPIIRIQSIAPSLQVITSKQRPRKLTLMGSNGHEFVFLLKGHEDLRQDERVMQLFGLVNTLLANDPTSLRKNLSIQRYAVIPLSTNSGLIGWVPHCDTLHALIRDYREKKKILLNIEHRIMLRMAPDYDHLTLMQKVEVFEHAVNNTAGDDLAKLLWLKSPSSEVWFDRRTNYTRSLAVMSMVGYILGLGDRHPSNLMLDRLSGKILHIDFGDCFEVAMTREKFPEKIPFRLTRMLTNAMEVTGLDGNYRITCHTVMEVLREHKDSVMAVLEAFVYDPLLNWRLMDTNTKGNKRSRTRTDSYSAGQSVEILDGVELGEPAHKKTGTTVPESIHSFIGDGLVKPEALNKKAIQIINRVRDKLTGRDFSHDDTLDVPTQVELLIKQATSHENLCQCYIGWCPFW
The next experiment addresses PI3K-γ (Homo sapiens, UniProt P48736). The experiment in a line: PI3K-gamma fluorescence polarization assay. The note with it: read-out: IC50 PI3Kγ.
Where [3] appears, read: read-out: IC50 MDA-MB-361, MTS cell growth assay, three days after drug treatment.
The mark [4] stands for this setting: read-out: IC50 PC3-mm2, MTS cell growth assay, three days after drug treatment.
Setting [5] is: MTS cell growth assay, three days after drug treatment, read-out: IC50 MDA-MB-361.
Setting [6] is: MTS cell growth assay, three days after drug treatment, read-out: IC50 PC3-mm2.

The term pIC50 denotes the negative decadic logarithm of the IC50, by convention in mol/L.

PI3K-γ, sequence (P48736 whole entry, species assumed): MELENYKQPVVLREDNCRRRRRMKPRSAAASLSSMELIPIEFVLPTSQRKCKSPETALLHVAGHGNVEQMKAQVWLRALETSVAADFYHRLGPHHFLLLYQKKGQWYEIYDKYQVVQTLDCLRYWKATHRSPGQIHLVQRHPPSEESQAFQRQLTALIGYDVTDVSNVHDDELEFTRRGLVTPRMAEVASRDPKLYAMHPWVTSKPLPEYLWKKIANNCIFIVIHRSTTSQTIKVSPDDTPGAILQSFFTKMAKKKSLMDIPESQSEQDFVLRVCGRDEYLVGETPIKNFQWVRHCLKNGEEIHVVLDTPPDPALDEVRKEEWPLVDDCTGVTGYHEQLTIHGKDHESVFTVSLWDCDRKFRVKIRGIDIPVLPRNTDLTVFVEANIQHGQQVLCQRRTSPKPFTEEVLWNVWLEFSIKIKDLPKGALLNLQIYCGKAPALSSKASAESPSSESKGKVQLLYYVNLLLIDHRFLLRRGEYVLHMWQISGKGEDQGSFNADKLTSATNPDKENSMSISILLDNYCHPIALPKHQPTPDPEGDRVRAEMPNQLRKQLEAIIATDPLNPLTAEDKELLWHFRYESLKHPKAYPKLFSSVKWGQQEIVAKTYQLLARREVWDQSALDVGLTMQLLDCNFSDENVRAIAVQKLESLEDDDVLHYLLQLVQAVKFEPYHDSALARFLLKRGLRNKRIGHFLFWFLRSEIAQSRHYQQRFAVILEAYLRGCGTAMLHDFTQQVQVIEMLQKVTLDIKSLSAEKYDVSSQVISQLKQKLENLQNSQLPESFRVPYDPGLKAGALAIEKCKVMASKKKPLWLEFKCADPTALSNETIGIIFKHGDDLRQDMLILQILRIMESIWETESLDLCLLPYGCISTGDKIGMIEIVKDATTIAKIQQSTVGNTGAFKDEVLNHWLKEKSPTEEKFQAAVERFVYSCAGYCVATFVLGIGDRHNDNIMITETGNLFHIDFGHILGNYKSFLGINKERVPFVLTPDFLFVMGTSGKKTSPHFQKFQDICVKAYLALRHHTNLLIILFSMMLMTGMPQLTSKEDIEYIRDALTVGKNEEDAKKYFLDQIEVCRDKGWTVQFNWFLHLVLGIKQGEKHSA

For `COC(=O)c1ccc(NC(=O)Nc2ccc(-c3nc(N4CCOCC4)nc(N4CCOCC4)n3)cc2)cc1` [Example 58, methyl 4-({[4-(4,6-dimorpholin-4-yl-1,3,5-triazin-2-yl)phenyl]carbamoyl}amino)benzoate], the pIC50 in experiment [1] (setting [3]) is 6.94; at PI3K-α, 7.89; in experiment [2] (setting [4]), 7.35; on Human mTOR (FLAG-TOR) (read-out: IC50 mTOR) it was 8.60; at PI3K-γ it was 7.07.
Take `O=C(Nc1ccccc1)Nc1ccc(-c2nc(OC3CCOCC3)nc(N3CCOCC3)n2)cc1` [Example 60, 1-{4-[4-morpholin-4-yl-6-(tetrahydro-2H-pyran-4-yloxy)-1,3,5-triazin-2-yl]phenyl}-3-phenylurea]: the negative logarithm of the IC50 (pIC50) was 7.08 in experiment [1] (setting [5]); 8.30 on PI3K-α; 7.04 in experiment [2] (setting [6]); 8.74 on Human mTOR (FLAG-TOR) (read-out: IC50 mTOR); 7.44 on PI3K-γ.
As for `O=C(Nc1ccc(-c2nc(OC3CCOCC3)nc(N3CCOCC3)n2)cc1)Nc1cccnc1` [Example 61, 1-{4-[4-morpholin-4-yl-6-(tetrahydro-2H-pyran-4-yloxy)-1,3,5-triazin-2-yl]phenyl}-3-pyridin-3-ylurea], the pIC50 is 7.32 in experiment [1] (setting [5]); 8.05 on PI3K-α; 7.64 in experiment [2] (setting [6]); 9.12 on Human mTOR (FLAG-TOR) (read-out: IC50 mTOR); 7.49 on PI3K-γ.
For `O=C(Nc1ccc(CO)cc1)Nc1ccc(-c2nc(OC3CCOCC3)nc(N3CCOCC3)n2)cc1` [Example 62, 1-[4-(hydroxymethyl)phenyl]-3-{4-[4-morpholin-4-yl-6-(tetrahydro-2H-pyran-4-yloxy)-1,3,5-triazin-2-yl]phenyl}urea], in that order: 7.57, 8.70, 7.47, 9.17 and 7.62.
Consider `Cc1cc(NC(=O)Nc2ccc(-c3nc(OC4CCOCC4)nc(N4CCOCC4)n3)cc2)ccn1` [Example 63, 1-(2-methylpyridin-4-yl)-3-{4-[4-morpholin-4-yl-6-(tetrahydro-2H-pyran-4-yloxy)-1,3,5-triazin-2-yl]phenyl}urea], for which the pIC50 was 7.16 in experiment [1] (setting [5]); 8.30 on PI3K-α; 7.21 in experiment [2] (setting [6]); 8.71 on Human mTOR (FLAG-TOR) (read-out: IC50 mTOR); 7.44 at PI3K-γ.
For `CC(=O)c1cccc(NC(=O)Nc2ccc(-c3nc(OC4CCOCC4)nc(N4CCOCC4)n3)cc2)c1` [Example 65, 1-(3-acetylphenyl)-3-{4-[4-morpholin-4-yl-6-(tetrahydro-2H-pyran-4-yloxy)-1,3,5-triazin-2-yl]phenyl}urea], the pIC50 was 6.82 in experiment [1] (setting [5]); 7.82 on PI3K-α; 6.57 in experiment [2] (setting [6]); 8.30 at Human mTOR (FLAG-TOR) (read-out: IC50 mTOR); 7.08 on PI3K-γ.
As for `CN(C)c1ccc(NC(=O)Nc2ccc(-c3nc(OC4CCOCC4)nc(N4CCOCC4)n3)cc2)cc1` [Example 66, 1-[4-(dimethylamino)phenyl]-3-{4-[4-morpholin-4-yl-6-(tetrahydro-2H-pyran-4-yloxy)-1,3,5-triazin-2-yl]phenyl}urea], the pIC50 in experiment [1] (setting [5]) is 7.23; on PI3K-α it was 8.15; in experiment [2] (setting [6]), 7.18; at Human mTOR (FLAG-TOR) (read-out: IC50 mTOR), 8.78; on PI3K-γ, 7.52.
As to `O=C(Nc1ccc(C(=O)O)cc1)Nc1ccc(-c2nc(N3CCOCC3)nc(N3CCOCC3)n2)cc1` [Example 67, 4-[3-{4-(4,6-dimorpholino-1,3,5-triazin-2-yl)phenyl}ureido]benzoic acid], the pIC50 in experiment [1] (setting [3]) was 6.09; on PI3K-α, 8.22; in experiment [2] (setting [4]) it was 7.55; at Human mTOR (FLAG-TOR) (read-out: IC50 mTOR), 8.84; on PI3K-γ, 7.32.
For `CN(C)CCNC(=O)c1ccc(NC(=O)Nc2ccc(-c3nc(N4CCOCC4)nc(N4CCOCC4)n3)cc2)cc1` [Example 68, N-(2-(dimethylamino)ethyl)-4-(3-(4-(4,6-dimorpholino-1,3,5-triazin-2-yl)phenyl)ureido)benzamide], the pIC50 was over 8.52 in experiment [1] (setting [5]); 9.52 at PI3K-α; 7.96 in experiment [2] (setting [4]); 9.24 on Human mTOR (FLAG-TOR) (read-out: IC50 mTOR); 8.15 on PI3K-γ.
Take `CN1CCN(C(=O)c2ccc(NC(=O)Nc3ccc(-c4nc(N5CCOCC5)nc(N5CCOCC5)n4)cc3)cc2)CC1` [Example 69, 1-(4-(4,6-dimorpholino-1,3,5-triazin-2-yl)phenyl)-3-(4-(4-methylpiperazine-1-carbonyl)phenyl)urea hydrochloride]: the pIC50 in experiment [1] (setting [5]) was 8.00; at PI3K-α, 9.40; in experiment [2] (setting [6]), 7.89; on Human mTOR (FLAG-TOR) (read-out: IC50 mTOR), 9.07; at PI3K-γ, 8.10.
As for `CN(C)CCN(C)C(=O)c1ccc(NC(=O)Nc2ccc(-c3nc(N4CCOCC4)nc(N4CCOCC4)n3)cc2)cc1` [Example 71, N-(2-(dimethylamino)ethyl)-4-(3-(4-(4,6-dimorpholino-1,3,5-triazin-2-yl)phenyl)ureido)-N-methylbenzamide hydrochloride], the pIC50 in experiment [1] (setting [5]) was over 8.01; at PI3K-α, 9.40; in experiment [2] (setting [6]), 7.74; against Human mTOR (FLAG-TOR) (IC50 mTOR) it was 9.17; at PI3K-γ, 8.10.
As to `O=C(Nc1ccc(C(=O)N2CCC(N3CCOCC3)CC2)cc1)Nc1ccc(-c2nc(N3CCOCC3)nc(N3CCOCC3)n2)cc1` [Example 72, 1-(4-(4,6-dimorpholino-1,3,5-triazin-2-yl)phenyl)-3-(4-(4-morpholinopiperidine-1-carbonyl)phenyl)urea], the pIC50 is 9.00 in experiment [1] (setting [5]); 8.70 at PI3K-α; 7.89 in experiment [2] (setting [6]); 9.07 at Human mTOR (FLAG-TOR) (read-out: IC50 mTOR); 7.72 at PI3K-γ.
Regarding `O=C(Nc1ccc(C(=O)NC2CN3CCC2CC3)cc1)Nc1ccc(-c2nc(N3CCOCC3)nc(N3CCOCC3)n2)cc1` (stereo not drawn) [Example 73, 4-(3-(4-(4,6-dimorpholino-1,3,5-triazin-2-yl)phenyl)ureido)-N-(quinuclidin-3-yl)benzamide], the pIC50 in experiment [1] (setting [5]) was 7.52; on PI3K-α, 9.52; in experiment [2] (setting [6]), 6.97; on Human mTOR (FLAG-TOR) (read-out: IC50 mTOR), 9.11; on PI3K-γ, 8.15.
Regarding `O=C(Nc1ccc(C(=O)N2CCC(N3CCCC3)CC2)cc1)Nc1ccc(-c2nc(N3CCOCC3)nc(N3CCOCC3)n2)cc1` [Example 74, 1-(4-(4,6-dimorpholino-1,3,5-triazin-2-yl)phenyl)-3-(4-(4-(pyrrolidin-1-yl)piperidine-1-carbonyl)phenyl)urea], the negative logarithm of the IC50 (pIC50) in experiment [1] (setting [5]) was over 8.52; on PI3K-α, 9.40; at PI3K-α (listed as 179), 9.00; in experiment [2] (setting [6]), 8.08; at Human mTOR (FLAG-TOR) (read-out: IC50 mTOR), 9.00 and 9.20; on PI3K-γ it was 8.10. Moreover, the pIC50 on PI3K-γ (listed as 179) was 7.89.
Consider `O=C(Nc1ccc(C(=O)N2CCC(N3CCCCC3)CC2)cc1)Nc1ccc(-c2nc(N3CCOCC3)nc(N3CCOCC3)n2)cc1` [Example 75, 1-(4-(1,4′-bipiperidine-1′-carbonyl)phenyl)-3-(4-(4,6-dimorpholino-1,3,5-triazin-2-yl)phenyl)urea], for which the pIC50 in experiment [1] (setting [5]) was over 8.52; at PI3K-α, 9.22; in experiment [2] (setting [4]) it was 8.15; on Human mTOR (FLAG-TOR) (read-out: IC50 mTOR) it was 9.12; on PI3K-γ, 8.00.
With `O=C(Nc1ccc(C(=O)N2CCNCC2)cc1)Nc1ccc(-c2nc(N3CCOCC3)nc(N3CCOCC3)n2)cc1` [Example 77, 1-(4-(4,6-dimorpholino-1,3,5-triazin-2-yl)phenyl)-3-(4-(piperazine-1-carbonyl)phenyl)urea], the pIC50 in experiment [1] (setting [5]) was over 7.52; at PI3K-α it was 9.52; in experiment [2] (setting [6]) it was over 7.52; at Human mTOR (FLAG-TOR) (read-out: IC50 mTOR), 9.17; at PI3K-γ, 8.40.
Consider `C[C@H]1COCCN1c1nc(-c2ccc(NC(=O)Nc3ccncc3)cc2)nc(N2CCOCC2)n1` [Example 89, 1-(4-{4-[(3S)-3-methylmorpholin-4-yl]-6-morpholin-4-yl-1,3,5-triazin-2-yl}phenyl)-3-pyridin-4-ylurea], for which the pIC50 in experiment [1] (setting [5]) is 7.52; at PI3K-α, 8.00; in experiment [2] (setting [6]) it was 7.33; on Human mTOR (FLAG-TOR) (read-out: IC50 mTOR) it was 8.80; on PI3K-γ, 7.51.
For the molecule `Cc1cc(NC(=O)Nc2ccc(-c3nc(N4CCOCC4)nc(N4CCOC[C@@H]4C)n3)cc2)ccn1` [Example 92, 1-(4-{4-[(3S)-3-methylmorpholin-4-yl]-6-morpholin-4-yl-1,3,5-triazin-2-yl}phenyl)-3-(2-methylpyridin-4-yl)urea], the pIC50 was 6.85 in experiment [1] (setting [5]); 7.96 on PI3K-α; 7.06 in experiment [2] (setting [6]); 8.63 at Human mTOR (FLAG-TOR) (read-out: IC50 mTOR); 7.04 at PI3K-γ.
Regarding `CC(O)c1ccc(NC(=O)Nc2ccc(-c3nc(N4CCOCC4)nc(N4CCOC[C@@H]4C)n3)cc2)cc1` (stereo partly drawn) [Example 93, 1-[4-(1-hydroxyethyl)phenyl]-3-(4-{4-[(3S)-3-methylmorpholin-4-yl]-6-morpholin-4-yl-1,3,5-triazin-2-yl}phenyl)urea], the pIC50 was 7.38 in experiment [1] (setting [5]); 7.92 on PI3K-α; 7.22 in experiment [2] (setting [6]); 8.07 on Human mTOR (FLAG-TOR) (read-out: IC50 mTOR); 6.88 on PI3K-γ.
For `CC(C)Oc1nc(-c2ccc(NC(=O)Nc3ccncc3)cc2)nc(N2CCOCC2)n1` [Example 94, 1-[4-(4-isopropoxy-6-morpholin-4-yl-1,3,5-triazin-2-yl)phenyl]-3-pyridin-4-ylurea], in that order: 7.27, 8.30, 7.09, 9.00 and 7.25.
